Laboratory results as given in US5599793A, “Antithromobotic agents” (Eli Lilly and Company, priority 1995, dated 1997).

Assays:
factor Xa = biological target: T1, factor Xa (Homo sapiens, UniProt P00742); assay: Serine protease selectivity, chromogenic substrate (Kass), factor Xa; type: biochemical; conditions: substrate N-Benzoyl-Ile-Glu-Gly-Arg-p-nitroanilide
T1 construct: Human factors X, Xa, IXa, XIa, and XIIa are purchased; purchased Enzyme Research Laboratories, South Bend, Ind
Protocol: (§1) The assay is carried out by mixing 50 μL buffer (0.03M Tris, 0.15M NaCl, pH 7.4) with 25 μL of bovine thrombin or human thrombin solution (0.21 mg/mL of thrombostat bovine thrombin, Parke-Davis, or purified human thrombin, Enzyme Research Laboratories, South Bend, Ind., at about 8 NIH units/mL, in the same buffer) and 25 μL of test compound in a solvent (in 50% aqueous methanol, v:v). The 150 μL of an aqueous solution of the chromogenic substrate (at 0.25 mg/mL) are added and the rates of hydrolysis of the substrate are measured by monitoring the reactions at 405 nm for the release of p-nitroaniline. Standard curves are constructed by plotting free thrombin concentration against hydrolysis rate. The hydrolysis rates observed with test compounds are then converted to "free thrombin" values in the respective assays by use of the standard curves. The bound thrombin (bound to test compound) is calculated by subtracting the amount of free thrombin observed in each assay from the known initial amount of thrombin used in the assay. The amount of free inhibitor in each assay is calculated by subtracting the number of moles of bound thrombin from the number of moles of added inhibitor (test compound).
(§2) Kass is calculated for a range of concentrations of test compounds and the mean value is reported in units of liter per mole.
(§3) By substantially following the procedures described above for human thrombin, and using other human blood coagulation system serine proteases and proteases of the fibrinolytic system with the appropriate chromogenic substrates, identified below, selectivity of the compounds of the present invention with respect to the coagulation factor serine proteases and with respect to the fibrinolytic system serine proteases are evaluated as well as their substantial lack of interference with serine proteases of the fibrinolytic system. Thrombin inhibitors preferably should spare fibrinolysis induced by urokinase, tissue plasminogen activator (t-PA) and streptokinase. This would be important to the therapeutic use of such agents as an adjunct to streptokinase, t-PA or urokinase thrombolytic therapy and to the use of such agents as an endogenous fibrinolysis-sparing (with respect to t-PA and urokinase) antithrombotic agent. In addition to the lack of interference with the amidase activity of the fibrinolytic proteases, such fibrinolytic system sparing can be studied by the use of human plasma clots and their lysis by the respective fibrinolytic plasminogen activators.
Human factors X, Xa, IXa, XIa, and XIIa are purchased from Enzyme Research Laboratories, South Bend, Ind.; human urokinase from Leo Pharmaceuticals, Denmark; and recombinant activated Protein C (aPC) is prepared at Eli Lilly and Co. substantially according to U.S. Pat. No. 4,981,952. Chromogenic substrates: N-Benzoyl-Ile-Glu-Gly-Arg-p-nitroanilide (for factor Xa); N-Cbz-D-Arg-Gly-Arg-p-nitroanilide (for factor IXa assay as the factor Xa substrate); Pyroglutamyl-Pro-Arg-p-nitroanilide (for Factor XIa and for aPC); H-D-Pro-Phe-Arg-p-nitroanilide (for factor XIIa); and Pyroglutamyl-Gly-Arg-p-nitroanilide (for urokinase); are purchased from KabiVitrum, Stockholm, Sweden, or from Midwest Biotech, Fishers, Ind. Bovine trypsin is purchased from Worthington Biochemicals, Freehold, N.J., and human plasma kallikrein from Kabi Vitrum, Stockholm, Sweden. Chromogenic substrate H-D-Pro-Phe-Arg-p-nitroanilide for plasma kallikrein is purchased from Kabi Vitrum, Stockholm, Sweden. N-Benzoyl-Phe-Val-Arg-p-nitroanilide, the substrate for human thrombin and for trypsin, is synthesized according to procedures described above for the compounds of the present invention, using known methods of peptide coupling from commercially available reactants or purchased from Midwest Biotech, Fishers, Ind.

Plasmin = biological target: T2, Plasmin (Homo sapiens, UniProt P00747); assay: Serine protease selectivity, chromogenic substrate (Kass), plasmin; type: biochemical; conditions: substrate H-D-Val-Leu-Lys-p-nitroanilide
T2 construct: Human plasmin is purchased; purchased Boehringer Mannheim, Indianapolis, Ind
T2 sequence (P00747 581-810 limits assumed): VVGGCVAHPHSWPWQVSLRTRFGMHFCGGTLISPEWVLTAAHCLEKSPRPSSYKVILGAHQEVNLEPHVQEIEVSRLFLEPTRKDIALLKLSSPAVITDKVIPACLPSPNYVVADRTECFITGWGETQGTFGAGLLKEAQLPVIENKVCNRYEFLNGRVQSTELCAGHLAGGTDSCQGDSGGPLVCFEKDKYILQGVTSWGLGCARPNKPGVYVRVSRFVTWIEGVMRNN
T2 sequence (P00747 97-580 partner limits assumed): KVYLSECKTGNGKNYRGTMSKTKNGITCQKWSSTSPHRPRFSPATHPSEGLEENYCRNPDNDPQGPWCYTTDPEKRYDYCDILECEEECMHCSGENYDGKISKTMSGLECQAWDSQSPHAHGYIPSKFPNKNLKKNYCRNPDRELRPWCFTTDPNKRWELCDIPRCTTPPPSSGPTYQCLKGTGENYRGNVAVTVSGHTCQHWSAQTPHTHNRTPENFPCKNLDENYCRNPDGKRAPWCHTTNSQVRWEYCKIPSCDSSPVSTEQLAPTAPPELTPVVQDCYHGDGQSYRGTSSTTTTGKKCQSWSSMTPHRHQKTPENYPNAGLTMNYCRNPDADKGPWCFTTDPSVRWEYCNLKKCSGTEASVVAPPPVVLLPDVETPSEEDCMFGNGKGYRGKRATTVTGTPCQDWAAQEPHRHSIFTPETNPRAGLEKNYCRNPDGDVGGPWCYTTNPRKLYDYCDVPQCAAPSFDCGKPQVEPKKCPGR
Protocol: as §1, §2, §3
(§4) Human plasmin is purchased from Boehringer Mannheim, Indianapolis, Ind.; nt-PA is purchased as single chain activity reference from American Diagnostica, Greenwich, Conn.; modified-t-PA6 (mt-PA6) is prepared at Eli Lilly and Company by procedure known in the art (See, Burck, et al., J. Biol. Chem., 265, […] (1990). Plasmin chromogenic substrate H-D-Val-Leu-Lys-p-nitroanilide and tissue plasminogen activator (t-PA) substrate H-D-Ile-Pro-Arg-p-nitroanilide are purchased from Kabi Vitrum, Stockholm, Sweden.

t-PA = biological target: T3, t-PA (Homo sapiens, UniProt P00750); assay: Serine protease selectivity, chromogenic substrate (Kass), t-PA; type: biochemical; conditions: substrate H-D-Ile-Pro-Arg-p-nitroanilide
T3 construct: purchased American Diagnostica, Greenwich, Conn
T3 sequence (P00750 36-562): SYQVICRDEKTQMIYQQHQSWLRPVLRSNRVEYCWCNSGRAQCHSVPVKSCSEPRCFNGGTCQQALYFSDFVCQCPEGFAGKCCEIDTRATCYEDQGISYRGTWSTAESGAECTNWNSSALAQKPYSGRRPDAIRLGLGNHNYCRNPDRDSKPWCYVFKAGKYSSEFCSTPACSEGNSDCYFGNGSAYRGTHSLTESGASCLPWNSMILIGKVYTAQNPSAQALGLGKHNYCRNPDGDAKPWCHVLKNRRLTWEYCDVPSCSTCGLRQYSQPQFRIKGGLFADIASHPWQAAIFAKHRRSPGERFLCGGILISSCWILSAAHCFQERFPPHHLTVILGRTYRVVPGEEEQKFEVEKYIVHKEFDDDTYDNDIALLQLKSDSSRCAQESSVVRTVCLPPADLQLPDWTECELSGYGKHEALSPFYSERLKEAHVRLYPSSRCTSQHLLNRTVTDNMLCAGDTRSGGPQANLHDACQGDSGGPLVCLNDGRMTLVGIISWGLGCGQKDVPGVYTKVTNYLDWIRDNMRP
Protocol: as §1, §2, §3, §4

[1] = Index of bioavailability (% Relative Activity from plasma TT AUC, oral vs i.v.); type: in vivo; conditions: dose-adjusted AUC of plasma TT, p.o. versus i.v. bolus
Protocol: Plasma thrombin time (TT) and activated partial thromboplastin time (APTT) are measured with a fibrometer. Blood is sampled from a jugular catheter and collected in syringe containing sodium citrate (3.8%, 1 part to 9 parts blood). To measure TT, rat plasma (0.1 mL) is mixed with saline (0.1 mL) and bovine thrombin (0.1 mL, 30 U/mL in TRIS buffer; Parke Davis) at 37° C. For APTT, plasma (0.1 mL) and APTT solution (0.1 mL, Organon Teknika) are incubated for 5 minutes (37° C.) and CaCl2 (0.01 mL, 0.025M) is added to start coagulation. Assays are done in duplicate and averaged.
A measure of bioactivity, plasma thrombin time (TT), served as a substitute for the assay of parent compound on the assumption that increments in TT resulted from thrombin inhibition by parent only. The time course of the effect of the thrombin inhibitor upon TT is determined after i.v. bolus administration to anesthetized rats and after oral treatment of fasted conscious rats. Due to limitations of blood volume and the number of points required to determine the time course from time of treatment to the time when the response returned to pretreatment values, two populations of rats are used. Each sample population represented alternating sequential time points. The average TT over the time course is used to calculate area under the curve (AUC). The index of bioavailability is calculated by the formula shown below and is expressed as percent relative activity.
The area under the curve (AUC) of the plasma TT time course is determined and adjusted for the dose. This index of bioavailability is termed "% Relative Activity" and is calculated as [formula] Compounds
Compound solutions are prepared fresh daily in normal saline and are injected as a bolus or are infused starting 15 minutes before and continuing throughout the experimental perturbation which is 15 minutes in the arteriovenous shunt model and 60 minutes in the FeCl3 model of arterial injury and in the spontaneous thombosis model. Bolus injection volume is 1 mL/kg for i.v., and 5 mL/kg for p.o. and infusion volume is 3 mL/hr.

T1 sequence (P00742 235-488 limits assumed): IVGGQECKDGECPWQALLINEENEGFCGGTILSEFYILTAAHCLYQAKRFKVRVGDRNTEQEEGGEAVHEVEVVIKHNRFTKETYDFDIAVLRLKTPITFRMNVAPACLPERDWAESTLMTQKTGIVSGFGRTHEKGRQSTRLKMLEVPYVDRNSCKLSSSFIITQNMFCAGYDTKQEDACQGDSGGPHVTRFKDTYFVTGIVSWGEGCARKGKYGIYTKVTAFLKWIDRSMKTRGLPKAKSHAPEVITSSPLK
T1 sequence (P00742 41-179 partner limits assumed): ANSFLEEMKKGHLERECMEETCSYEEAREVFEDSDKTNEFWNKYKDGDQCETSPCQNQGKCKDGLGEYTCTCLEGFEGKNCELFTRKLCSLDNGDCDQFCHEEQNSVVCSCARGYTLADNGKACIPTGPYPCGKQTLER

Row | Compound | Enzyme Kass, Xa (factor Xa) [L/mol × 10^6] | Enzyme Kass, Plasmin (Plasmin) [L/mol × 10^6] | Enzyme Kass, t-PA (t-PA) [L/mol × 10^6] | % oral/i.v. activity (Rat) [1] [%] | Enzyme Kass, Xa (factor Xa; HCl) [L/mol × 10^6] | Enzyme Kass, Plasmin (Plasmin; HCl) [L/mol × 10^6] | Enzyme Kass, t-PA (t-PA; HCl) [L/mol × 10^6]
1 | Cl.Cl.N=C(N)NCCCC(C=O)NC(=O)C1CC2CCCCC2N1C(=O)C1NCCC2CCCCC21 [Example 20, D-1-cis-Piq-cis-Ohi-ArgH.2 HCl] | – | – | – | 6 | 0.75 | 3.67 | 0.013
2 | Cl.Cl.Cl.N=C(N)NCCC[C@@H](C=O)NC(=O)[C@@H]1C[C@H](Oc2ccc(N)cc2)CN1C(=O)[C@H]1CCCCN1 (relative stereo) [Example 11, D-hPro-Pro(4-cis-(4-NH2-phenoxy))-ArgH.3 HCl] | 0.66 | 1.4 | 0.086 | 9 | – | – | –
3 | Cl.Cl.N=C(N)NCCC[C@H](C=O)NC(=O)[C@@H]1C[C@H](Oc2ccccc2)CN1C(=O)[C@H]1CCCCN1 (relative stereo) [Example 8, D-homoprolyl-L-cis-4-phenoxy-L-prolyl-D-argininal dihydrochloride] | 3.0 | 2.9 | 0.069 | 20 | – | – | –
4 | C[C@H]1C[C@@H](C(=O)N[C@H](C=O)CCCNC(=N)N)N(C(=O)[C@H]2CCCCN2)C1.Cl.Cl (relative stereo) [Example 1, D-homoprolyl-L-cis-4-methyl-prolyl-L-argininal dihydrochloride] | 1.4 | 0.86 | 0.077 | 47 | – | – | –
5 | CCS(=O)(=O)N[C@@H](C(=O)N1[C@H](C(=O)N[C@H](C=O)CCCNC(=N)N)C[C@@H]2CCCC[C@@H]21)c1ccccc1.Cl (relative stereo) [Example 22, EtSO2 -D-Phg-cis-Ohi-ArgH.HCl] | 11.8 | 27.6 | 0.085 | 30 | – | – | –
6 | CC[C@H]1C[C@@H](C(=O)N[C@H](C=O)CCCNC(=N)N)N(C(=O)[C@H]2CCCCN2)C1.Cl.Cl (relative stereo) [Example 2, D-homoprolyl-L-cis-4-ethyl-prolyl-L-argininal dihydrochloride] | 1.7 | 1.0 | 0.097 | 50 | – | – | –

The next lines start with the values.

Row | Enzyme Kass, Xa (factor Xa) [L/mol × 10^6] | Enzyme Kass, Plasmin (Plasmin) [L/mol × 10^6] | Enzyme Kass, t-PA (t-PA) [L/mol × 10^6] | % oral/i.v. activity (Rat) [1] [%] | Enzyme Kass, Xa (factor Xa; HCl) [L/mol × 10^6] | Enzyme Kass, Plasmin (Plasmin; HCl) [L/mol × 10^6] | Enzyme Kass, t-PA (t-PA; HCl) [L/mol × 10^6] | Compound
7 | 1.7 | 0.66 | 0.14 | 45 | – | – | – | CCC[C@H]1C[C@@H](C(=O)N[C@H](C=O)CCCNC(=N)N)N(C(=O)[C@H]2CCCCN2)C1.Cl.Cl (relative stereo) [Example 3, D-hPro-Pro(4-cis-n-propyl)-ArgH.2 HCl]
8 | 2.6 | 5.1 | 0.045 | 5 | – | – | – | Cl.Cl.N=C(N)NCCC[C@@H](C=O)NC(=O)[C@@H]1C[C@H](Oc2ccccc2)CN1C(=O)C1NCCC2CCCCC21 (relative stereo) [Example 15, D-1-Piq-Pro(4-cis-phenoxy)-ArgH.2 HCl]
9 | 1.6 | 1.7 | 0.055 | 13 | – | – | – | Cl.Cl.Cl.N=C(N)NCCC[C@@H](C=O)NC(=O)[C@@H]1C[C@H](Oc2cccnc2)CN1C(=O)[C@H]1CCCCN1 (relative stereo) [Example 9, D-hPro-Pro(4-cis-(3-pyridyloxy))-ArgH.3 HCl]
10 | 5.8 | 2.1 | 0.057 | 20 | – | – | – | Cl.Cl.N=C(N)NCCC[C@@H](C=O)NC(=O)[C@@H]1C[C@H](Cc2ccccc2)CN1C(=O)[C@H]1CCCCN1 (relative stereo) [Example 5, D-hPro-Pro(4-cis-benzyl)-ArgH.2 HCl]
11 | 1.6 | 1.8 | 0.053 | 50 | – | – | – | Cl.Cl.N=C(N)NCCC[C@@H](C=O)NC(=O)[C@@H]1CC2CCCCC2N1C(=O)[C@H]1CCCCN1 (relative stereo) [Example 7, N-[(1-D-homoprolyl-cis-octahydro-1H-indol-2(S)-yl)carbonyl]-L-argininal dihydrochloride]
